Measured values: publication PMC8512054 (Molecules, 2021)
Like-named read-outs stand apart in the source and are kept apart here.

How the values were obtained:
MAO-B [1] = biological target: T1, MAO-B (Homo sapiens, UniProt P27338); set-up: purchased Sigma-Aldrich; method as in PMID 32246471; details: competitive inhibitor; read-out: Ki for MAO-B (earlier study); cited from earlier work
T1 sequence (P27338 1-520): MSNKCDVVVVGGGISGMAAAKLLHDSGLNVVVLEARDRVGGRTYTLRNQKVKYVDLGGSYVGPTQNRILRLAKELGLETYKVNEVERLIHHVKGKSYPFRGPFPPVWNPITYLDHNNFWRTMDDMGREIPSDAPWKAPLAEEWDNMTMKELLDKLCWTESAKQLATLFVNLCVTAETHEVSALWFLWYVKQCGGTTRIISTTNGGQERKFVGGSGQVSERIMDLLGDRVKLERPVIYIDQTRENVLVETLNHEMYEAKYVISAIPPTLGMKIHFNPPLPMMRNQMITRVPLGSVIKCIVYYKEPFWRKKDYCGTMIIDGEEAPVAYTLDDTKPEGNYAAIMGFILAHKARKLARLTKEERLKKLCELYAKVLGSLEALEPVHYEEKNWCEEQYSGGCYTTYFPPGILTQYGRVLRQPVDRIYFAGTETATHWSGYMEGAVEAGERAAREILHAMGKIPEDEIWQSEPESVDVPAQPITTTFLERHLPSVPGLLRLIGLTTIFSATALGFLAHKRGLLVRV

[2] = set-up: method as in PMID 29532412; details: PAMPA-BBB; cited from earlier work
[3] = BBB permeation by PAMPA method; type: in vitro ADME; details: for Prediction (BBB permeation): class from experimental Pe; for Effective permeability (Pe): read-out: Experimental Pe
Excerpt: The CNS bioavailability of the molecules was further ascertained by the PAMPA method.

BACE1 = BACE1 (Homo sapiens, UniProt P56817); assay: BACE1 activity assay kit (β-secretase, CS0010), fluorescence; details: for remaining activity at 10 µM: read-out: % Residual Activity (at 10 µM) BACE1
Experimental: (§1) MAO inhibitory assay was assessed in accordance with the previously standardized methods of assessing recombinant MAO-A and MAO-B by using the substrates (0.06 mM kynuramine and 0.3 mM benzylamine, respectively) [38, 39, 40]. […] The enzymes and chemicals were purchased from Sigma-Aldrich (St. Louis, MO, USA).
(§2) Initially, the inhibitory activities of the synthesized compounds were identified at a concentration of 10 μM against MAO-A, MAO-B, and BACE1. […] The obtained IC50 values thus compared were used to deduce the SI values.

MAO-B [4] = biological target: T1, MAO-B; assay: MAO-B inhibitory assay (recombinant MAO-B, benzylamine substrate); details: for Selectivity index (SI) for MAO-B as compared with MAO-A: from the IC50 values of MAO-A and MAO-B; for remaining activity at 10 µM: read-out: % Residual Activity (at 10 µM) MAO-B
Experimental: as §1, §2

MAO-B [5] = biological target: T1, MAO-B; assay: MAO-B inhibitor-reversibility analysis by dialysis; type: biochemical; set-up: purchased Sigma-Aldrich; details: for Reversibility of MAO-B inhibition: dialysis method; for Relative MAO-B activity, dialyzed (AD) / Relative MAO-B activity, undialyzed (AU): ~2 × IC50 (NEA1 0.032, NEA3 0.020, lazabemide 0.22, pargyline 0.28 μM); for Relative MAO-B activity, dialyzed (AD): dialysis 6 h; for Relative MAO-B activity, undialyzed (AU): preincubated 30 min
Experimental: The reversibility of MAO-B inhibition by NEA1 and NEA3 was evaluated using a standardized dialysis method. […] The activities in dialyzed (AD) and undialyzed (AU) samples were compared and reversibility patterns were determined.
Dialysis was performed for 6 h with a buffer change after 3 h with duplicate experiments.

recombinant MAO-A = biological target: T2, recombinant MAO-A (Homo sapiens, UniProt P21397); assay: MAO-A inhibitory assay (recombinant MAO-A, kynuramine substrate); details: for remaining activity at 10 µM: read-out: % Residual Activity (at 10 µM) MAO-A
T2 sequence (P21397 1-527): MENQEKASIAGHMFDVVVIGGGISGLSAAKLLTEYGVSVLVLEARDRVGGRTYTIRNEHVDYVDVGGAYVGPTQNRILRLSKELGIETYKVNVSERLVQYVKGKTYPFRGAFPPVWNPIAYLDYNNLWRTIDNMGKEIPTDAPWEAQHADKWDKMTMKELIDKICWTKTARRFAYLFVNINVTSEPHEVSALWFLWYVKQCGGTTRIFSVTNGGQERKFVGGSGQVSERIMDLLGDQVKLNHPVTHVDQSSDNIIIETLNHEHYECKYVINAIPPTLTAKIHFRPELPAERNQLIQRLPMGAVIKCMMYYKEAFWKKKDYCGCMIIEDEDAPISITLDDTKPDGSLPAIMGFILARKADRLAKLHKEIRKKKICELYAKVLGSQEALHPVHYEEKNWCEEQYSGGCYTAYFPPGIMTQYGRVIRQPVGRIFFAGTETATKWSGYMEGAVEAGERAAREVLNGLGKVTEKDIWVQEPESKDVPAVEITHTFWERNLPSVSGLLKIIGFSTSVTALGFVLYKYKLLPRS
Experimental: as §1, §2

MAO-B [6] = biological target: T1, MAO-B; assay: MAO-B enzyme-inhibition kinetics (Lineweaver–Burk and secondary plots); type: biochemical; set-up: purchased Sigma-Aldrich; details: for Mode of MAO-B inhibition: Lineweaver–Burk plots; for Ki: from secondary plot of Lineweaver–Burk slopes
Excerpt: The obtained results are represented in Figure 1.
Figure 1 Lineweaver–Burk plots for MAO-B inhibition by NEA1 and NEA3 (A,C), and their respective secondary plots (B,D) of the slopes vs. inhibitor concentrations.

Chain of BACE1 (P56817 46-501): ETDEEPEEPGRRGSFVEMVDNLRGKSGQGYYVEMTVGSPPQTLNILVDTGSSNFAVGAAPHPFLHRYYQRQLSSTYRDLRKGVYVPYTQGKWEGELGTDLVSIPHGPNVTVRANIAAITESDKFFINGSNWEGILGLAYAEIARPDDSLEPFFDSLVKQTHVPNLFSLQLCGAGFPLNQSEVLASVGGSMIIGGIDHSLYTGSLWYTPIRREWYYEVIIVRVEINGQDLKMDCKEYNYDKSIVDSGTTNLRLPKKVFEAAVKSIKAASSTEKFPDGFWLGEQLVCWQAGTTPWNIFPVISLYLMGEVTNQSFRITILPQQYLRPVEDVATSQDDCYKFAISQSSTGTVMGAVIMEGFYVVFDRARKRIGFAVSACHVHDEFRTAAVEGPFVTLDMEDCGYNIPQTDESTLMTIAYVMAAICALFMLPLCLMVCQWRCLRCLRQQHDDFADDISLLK

SMILES	Ki (MAO-B [1])	Bibliography Pe [2]	Prediction (BBB permeation) [3]	Effective permeability (Pe) [3]	IC50 (BACE1)	remaining activity at 10 µM (BACE1)	IC50 (MAO-B [4])	Selectivity index (SI) for MAO-B as compared with MAO-A (MAO-B [4])	remaining activity at 10 µM (MAO-B [4])	Reversibility of MAO-B inhibition (MAO-B [5])	Relative MAO-B activity, dialyzed (AD) (MAO-B [5])	Relative MAO-B activity, undialyzed (AU) (MAO-B [5])	IC50 (recombinant MAO-A)	remaining activity at 10 µM (recombinant MAO-A)	Mode of MAO-B inhibition (MAO-B [6])	Ki (MAO-B [6])	melting point	Experimental Pe [3]
C=CC(=O)Nc1cccc([N+](=O)[O-])c1 [AD9, N-(3-nitrophenyl)prop-2 enamide]	39 ± 5 nM	–	–	–	–	–	–	–	–	–	–	–	–	–	–	–	–	–
NCCc1ccc(O)c(O)c1 [Dopamine, reference compound]	–	2e-07 cm/s	CNS− (CNS− (low BBB permeation predicted: Pe (10^−6 cm/s) < 2.00))	0.26 ± 0.04 ×10⁻⁶ cm/s	–	–	–	–	–	–	–	–	–	–	–	–	–	–
CCn1cc(C(=O)O)c(=O)c2cc(F)c(N3CCNC(C)C3)c(F)c21 (stereo not drawn) [Lomefloxacin, reference compound]	–	–	CNS− (CNS− (low BBB permeation predicted: Pe (10^−6 cm/s) < 2.00))	1.31 ± 0.51 ×10⁻⁶ cm/s	–	–	–	–	–	–	–	–	–	–	–	–	–	–
O=C(C=Cc1ccc([N+](=O)[O-])cc1)Nc1ccccc1 [NEA1, 3-(4-Nitrophenyl)-N-phenylacrylamide]	–	–	CNS+ (CNS+ (high BBB permeation predicted: Pe (10^−6 cm/s) > 4.00))	14.4 ± 0.35 ×10⁻⁶ cm/s	8.21 ± 0.03 µM	34.9 ± 0.5%	16 ± 1 nM	>2500.0	3.88 ± 0.6%	reversible	79.5%	29.2%	> 40 µM	91.9 ± 5.9%	competitive	13 ± 5 nM	–	–
O=C(C=Cc1ccc([N+](=O)[O-])cc1)Nc1ccc(Cl)cc1 [NEA2, N-(4-Chlorophenyl)-3-(4-nitrophenyl)acrylamide]	–	–	CNS+ (CNS+ (high BBB permeation predicted: Pe (10^−6 cm/s) > 4.00))	13.5 ± 0.26 ×10⁻⁶ cm/s	–	88.1 ± 0.3%	5280 ± 90 nM	>7.58	35.8 ± 6.2%	–	–	–	> 40 µM	95 ± 0.5%	–	–	224 to 226 °C	–
O=C(C=Cc1ccc([N+](=O)[O-])cc1)Nc1ccc(F)cc1 [NEA3, N-(4-Fluorophenyl)-3-(4-nitrophenyl)acrylamide]	–	–	CNS+ (CNS+ (high BBB permeation predicted: Pe (10^−6 cm/s) > 4.00))	16.4 ± 0.17 ×10⁻⁶ cm/s	8.02 ± 0.13 µM	34.4 ± 0.2%	9.2 ± 0.3 nM	1652.2	3.04 ± 0.5%	reversible	79.5%	32.8%	15.2 ± 0.6 µM	61.9 ± 0.4%	competitive	4.9 ± 0.2 nM	208 to 210 °C	–
O=C(C=Cc1ccc([N+](=O)[O-])cc1)NC1CCCCC1 [NEA4, N-Cyclohexyl-3-(4-nitrophenyl)acrylamide]	–	–	CNS+ (CNS+ (high BBB permeation predicted: Pe (10^−6 cm/s) > 4.00))	15.5 ± 0.62 ×10⁻⁶ cm/s	–	61.2 ± 3%	74 ± 20 nM	>540.5	9.52 ± 3.5%	–	–	–	> 40 µM	85.6 ± 1.7%	–	–	166 to 168 °C	–
Cc1ccccc1NC(=O)/C=C/c1ccc([N+](=O)[O-])cc1 [NEA5, 3-(4-Nitrophenyl)-N-(O-tolyl)acrylamide]	–	–	CNS+ (CNS+ (high BBB permeation predicted: Pe (10^−6 cm/s) > 4.00))	15.5 ± 0.44 ×10⁻⁶ cm/s	17.7 ± 1.7 µM	44 ± 0.2%	38 ± 3 nM	>1052.6	8.67 ± 2.3%	–	–	–	> 40 µM	83.5 ± 1.3%	–	–	200 to 203 °C	–
CN1C(C(=O)Nc2ccccn2)=C(O)c2ccccc2S1(=O)=O [Piroxicam, reference compound]	–	2.5e-06 cm/s	CNS± (CNS± (BBB permeation uncertain: Pe (10^−6 cm/s) from 2.00 to 4.00))	–	–	–	–	–	–	–	–	–	–	–	–	–	–	2.37 ± 0.33 ×10^−6 cm/s
